Source: ChEMBL document CHEMBL1201862, “PubChem BioAssay data set” (2004)
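Five concentrations, 48 hours, 96-well plates. The concentration for 50% growth inhibition is given as GI50.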 Calls of active or inactive are those of the source. Rule as the data show it: active = GI50 up to about 1.1 µM and inactive = higher. Starred links: 1 amine or outer side, 2 acyl side, 3 side chain; linkers in the order of their positions; H or OH if unused. Non-standard residues stand in square brackets, D forms with d. Residues, ends and D or L forms follow the SMILES beside them. ξ: configuration not given here. X24 = O=C(C(CC(O)CO)O[*:1])[*:2]; Ile(3ξ) = CCC(C)[C@H](N)C(=O)O; NMeV = CN[C@H](C(=O)O)C(C)C; NMeA = CN[C@@H](C)C(=O)O; βAla = NCCC(=O)O

Assays:
Experiment in all cases: NCI anticancer screen, dose series, 48 h
[1] = system: M19-MEL
[2] = system: DMS-273
[3] = system: HOP-18
[4] = system: LXFL 529
[5] = system: SNB-78
[6] = system: DMS-114
[7] = system: KM-20L2
[8] = system: RXF 631
[9] = system: XF498

O=C(Cc1ccc([N+](=O)[O-])c([N+](=O)[O-])c1CC(=O)C(=O)Nc1cc(Cl)ccc1Cl)C(=O)Nc1cc(Cl)ccc1Cl
GI50 [1]: > 100 µM (inactive)
GI50 [2]: 30.3 µM (inactive)
GI50 [3]: > 100 µM (inactive)
GI50 [4]: > 100 µM (inactive)
GI50 [5]: 80 µM (inactive)
GI50 [6]: 45.5 µM (inactive)
GI50 [7]: > 100 µM (inactive)

O=C1NC2C=CN(Cc3ccccc3)C=C2C(=O)N2CCCC12 (stereo not given)
GI50 [8]: > 100 µM (inactive)
GI50 [1]: > 100 µM (inactive)
GI50 [2]: > 100 µM (inactive)
GI50 [3]: > 100 µM (inactive)
GI50 [4]: > 100 µM (inactive)
GI50 [5]: > 100 µM (inactive)
GI50 [9]: > 100 µM (inactive)
GI50 [6]: > 100 µM (inactive)
GI50 [7]: > 100 µM (inactive)

Cc1ccc(NC(=O)/C(C#N)=C/c2ccccc2)c(C)c1
GI50 [1]: > 100 µM (inactive)
GI50 [2]: > 100 µM (inactive)
GI50 [3]: > 100 µM (inactive)
GI50 [4]: > 100 µM (inactive)
GI50 [5]: > 100 µM (inactive)
GI50 [9]: > 100 µM (inactive)
GI50 [6]: > 100 µM (inactive)
GI50 [7]: > 100 µM (inactive)

CCOc1ccc2c(c1)[n+]([O-])c(-c1ccccc1Cl)c(N)[n+]2[O-]
GI50 [8]: > 100 µM (inactive)
GI50 [1]: > 100 µM (inactive)
GI50 [2]: > 100 µM (inactive)
GI50 [3]: > 100 µM (inactive)
GI50 [4]: > 100 µM (inactive)
GI50 [5]: > 100 µM (inactive)
GI50 [9]: > 100 µM (inactive)
GI50 [6]: > 100 µM (inactive)
GI50 [7]: > 100 µM (inactive)

C=C1c2ccccc2N(S(=O)(=O)c2ccc(C)cc2)C12CCCCC2
GI50 [1]: 47.1 µM (inactive)
GI50 [2]: 45 µM (inactive)
GI50 [3]: > 100 µM (inactive)
GI50 [4]: 37.2 µM (inactive)
GI50 [9]: > 100 µM (inactive)
GI50 [6]: 18.9 µM (inactive)
GI50 [7]: > 100 µM (inactive)

CCC(C)[C@@H]1NC(=O)[C@@H]2CCCN2C(=O)C(CC(O)CO)OC(=O)CCNC(=O)[C@H](C)N(C)C(=O)[C@H](C(C)C)N(C)C1=O (stereo not given in full) (cyclo([Ile(3ξ)][NMeV][NMeA][βAla][X24]P))
GI50 [8]: > 100 µM (inactive)
GI50 [1]: > 100 µM (inactive)
GI50 [2]: > 100 µM (inactive)
GI50 [4]: 44.6 µM (inactive)
GI50 [5]: > 100 µM (inactive)
GI50 [9]: > 100 µM (inactive)
GI50 [7]: > 100 µM (inactive)

COc1ccc(-c2cc(C(=O)Nc3cccc(C(F)(F)F)c3)nc(S)n2)cc1
GI50 [1]: > 100 µM (inactive)
GI50 [2]: > 100 µM (inactive)
GI50 [3]: > 100 µM (inactive)
GI50 [4]: > 100 µM (inactive)
GI50 [5]: > 100 µM (inactive)
GI50 [9]: > 100 µM (inactive)
GI50 [6]: > 100 µM (inactive)
GI50 [7]: > 100 µM (inactive)

O=C(O)c1c2c(cc3c(=O)cc(-c4ccccc4)oc13)CCCC2
GI50 [8]: > 100 µM (inactive)
GI50 [2]: > 100 µM (inactive)
GI50 [4]: > 100 µM (inactive)
GI50 [5]: > 100 µM (inactive)
GI50 [9]: > 100 µM (inactive)
GI50 [7]: > 100 µM (inactive)

O=C(/C=C\c1cccc2ccccc12)c1cccs1
GI50 [1]: 8.3 µM (inactive)
GI50 [2]: 5.26 µM (inactive)
GI50 [3]: 10.2 µM (inactive)
GI50 [4]: 10.9 µM (inactive)
GI50 [5]: 15.1 µM (inactive)
GI50 [6]: 4.3 µM (inactive)
GI50 [7]: 10.7 µM (inactive)

COc1cc2c3c(c1OC)-c1ccccc1C(C(O)c1ccccc1)C3N(C)CC2 (stereo not given)
GI50 [8]: 22.2 µM (inactive)
GI50 [1]: 27.8 µM (inactive)
GI50 [2]: 25.5 µM (inactive)
GI50 [3]: 82.8 µM (inactive)
GI50 [4]: 29.6 µM (inactive)
GI50 [5]: 65.9 µM (inactive)
GI50 [9]: 19.1 µM (inactive)
GI50 [6]: 17.6 µM (inactive)
GI50 [7]: 20.1 µM (inactive)

O=C(O)COc1ccc(O)c2c1C(=O)CCCC2=O
GI50 [8]: > 100 µM (inactive)
GI50 [1]: > 100 µM (inactive)
GI50 [2]: > 100 µM (inactive)
GI50 [4]: > 100 µM (inactive)
GI50 [5]: > 100 µM (inactive)
GI50 [9]: > 100 µM (inactive)
GI50 [6]: > 100 µM (inactive)
GI50 [7]: > 100 µM (inactive)

CCCCCCCCOCC(O)COC(C)C (stereo not given)
GI50 [1]: 45.5 µM (inactive)
GI50 [2]: 16.7 µM (inactive)
GI50 [3]: > 100 µM (inactive)
GI50 [4]: 93.8 µM (inactive)
GI50 [7]: 85.1 µM (inactive)

COc1ccc(C(=O)C(c2ccc(OC)cc2)C2C(=O)Oc3ccccc32)cc1 (stereo not given)
GI50 [8]: > 10 µM (inactive)
GI50 [1]: > 10 µM (inactive)
GI50 [2]: > 10 µM (inactive)
GI50 [3]: 59.4 µM (inactive)
GI50 [4]: > 10 µM (inactive)
GI50 [5]: 67.9 µM (inactive)
GI50 [9]: > 10 µM (inactive)
GI50 [6]: > 10 µM (inactive)
GI50 [7]: > 10 µM (inactive)

CC[C@@]1(O)C[C@H](OC2CC(N(C)C)C(OC3CC(O)C(OC4CCC(=O)C(C)O4)C(C)O3)C(C)O2)c2c(cc3c(c2O)C(=O)c2c(O)ccc(O)c2C3=O)[C@H]1C(=O)OC (stereo not given in full)
GI50 [2]: < 1e-05 µM (active)
GI50 [3]: 0.0128 µM (active)

COc1cc2cc3c4c(cc(OC)c(OC)c4c2cc1OC)CCN3C(=O)CCC(=O)O
GI50 [2]: > 100 µM (inactive)
GI50 [4]: > 100 µM (inactive)
GI50 [5]: > 100 µM (inactive)
GI50 [6]: > 100 µM (inactive)
GI50 [7]: > 100 µM (inactive)

CN(C)CCc1ccc(Cl)cc1Cl
GI50 [8]: > 100 µM (inactive)
GI50 [1]: > 100 µM (inactive)
GI50 [3]: > 100 µM (inactive)
GI50 [4]: > 100 µM (inactive)
GI50 [9]: > 100 µM (inactive)
GI50 [6]: > 100 µM (inactive)
GI50 [7]: > 100 µM (inactive)

Cc1cc(Cl)ccc1NC(=O)C1C(=O)C(=O)N(c2ccc(Cl)cc2C)C1=O (stereo not given)
GI50 [8]: 68.2 µM (inactive)
GI50 [1]: > 100 µM (inactive)
GI50 [2]: > 100 µM (inactive)
GI50 [4]: 48.3 µM (inactive)
GI50 [5]: 76 µM (inactive)
GI50 [6]: 25.1 µM (inactive)
GI50 [7]: 48.3 µM (inactive)

O=C(O)c1cc2ccc(Cl)cc2c(O)c1C1=CCCCC1
GI50 [8]: 32.1 µM (inactive)
GI50 [1]: 35.8 µM (inactive)
GI50 [2]: 20 µM (inactive)
GI50 [3]: 60.5 µM (inactive)
GI50 [4]: 35.3 µM (inactive)
GI50 [5]: 27.4 µM (inactive)
GI50 [9]: 18.7 µM (inactive)
GI50 [6]: 24.8 µM (inactive)
GI50 [7]: 51.6 µM (inactive)

CCCCCCCC/C=C\CCCCCCCC(=O)NCCN(CCN)C(=O)CCCCCCC/C=C\CCCCCCCC
GI50 [1]: > 100 µM (inactive)
GI50 [2]: > 100 µM (inactive)
GI50 [3]: > 100 µM (inactive)
GI50 [4]: > 100 µM (inactive)
GI50 [6]: > 100 µM (inactive)
GI50 [7]: > 100 µM (inactive)

C=CCOC1CC(n2cnc3c(N)ncnc32)OC1CO (stereo not given)
GI50 [1]: > 100 µM (inactive)
GI50 [2]: > 100 µM (inactive)
GI50 [4]: > 100 µM (inactive)
GI50 [9]: > 100 µM (inactive)
GI50 [6]: > 100 µM (inactive)
GI50 [7]: > 100 µM (inactive)

COc1ccc2c(c1)[n+]([O-])c(C(=O)C/C(=N\NC(=O)C[N+](C)(C)C)C(=O)Nc1cc(Cl)ccc1Cl)c(C)[n+]2[O-]
GI50 [1]: > 100 µM (inactive)
GI50 [2]: > 100 µM (inactive)
GI50 [3]: > 100 µM (inactive)
GI50 [4]: > 100 µM (inactive)
GI50 [5]: > 100 µM (inactive)

COc1c2c(c3c(c1C1OC(C)[C@@H](C)O1)CC(C)(C)O3)C(=O)c1ccccc1C2=O (stereo not given in full)
GI50 [8]: 9.91 µM (inactive)
GI50 [1]: 36.7 µM (inactive)
GI50 [2]: 24.2 µM (inactive)
GI50 [4]: 23.1 µM (inactive)
GI50 [5]: > 100 µM (inactive)
GI50 [9]: 41 µM (inactive)
GI50 [6]: 37.4 µM (inactive)
GI50 [7]: 29.2 µM (inactive)

CC(=O)O/N=C/c1cc2c(cc1Br)OCO2
GI50 [1]: > 349 µM (inactive)
GI50 [2]: > 349 µM (inactive)
GI50 [4]: > 349 µM (inactive)
GI50 [9]: > 349 µM (inactive)
GI50 [6]: > 349 µM (inactive)
GI50 [7]: > 349 µM (inactive)
